Data set [1] is described as follows: Kinetic solubility of compound at pH 7.4 PBS buffer incubated for 30 mins by nephelometry. It counts as physicochemical. The note with it: for Kinetic_solubility: buffer, pH 7.4, 0.5 h; for solubility kinetic at 0.5 h: PBS buffer, pH 7.4, read-out: Kinetic_solubility.
Data set [2] deals with MCF7. Kind of data set: Down modulation of sortilin expression in ERalpha-positive human MCF7 cells incubated for 48 hrs by Western blot analysis. It counts as ADME, cell-based. The settings on record: mcf7, 48 h.
Data set [3] has as its system MDA-MB-231. Kind of data set: Down modulation of sortilin expression in ERalpha-negative human MDA-MB-231 cells incubated for 48 hrs by Western blot analysis. It counts as ADME, cell-based. The note with it: mda-mb-231, 48 h. (A western blot detects proteins with antibodies after separation by electrophoresis.)
Data set [4] concerns MDA-MB-231. As to the kind of experiment: Inhibition of mammosphere-forming capacity in ER-negative human MDA-MB-231 cells assessed inhibition of as progranulin-induced mammosphere formation at 1 uM measured after 48 hrs by microscopy. It counts as functional, cell-based.
Data set [5] concerns MDA-MB-231. Kind of data set: Effect on mammosphere-forming capacity in ER-negative human MDA-MB-231 cells measured after 48 hrs by microscopy. The format is functional, cell-based.
In data set [6] the test system is MCF7. As to the kind of experiment: Inhibition of mammosphere-forming capacity in ER-positive human MCF7 cells assessed as inhibition of progranulin-induced mammosphere formation at 1 uM measured after 48 hrs by microscopy. The format is functional, cell-based.
The test system of data set [7] is MCF7. As to the kind of experiment: Cytotoxicity against human MCF7 cells assessed as reduction in cell viability after 48 hrs by alamar blue assay. The format is functional, cell-based. For orientation: Resazurin is reduced to fluorescent resorufin, in cell work by metabolically active cells.
Data set [8] has as its system HEK-293T. Kind of data set: Down modulation of sortilin expression in HEK293T cells tranfected with GFP-tagged sortilin incubated for 24 hrs by flow cytometric analysis. It counts as functional, cell-based. The note with it: Homo sapiens. On the technique in general: Flow cytometry measures light scatter and fluorescence of single cells or particles in a stream.
Data set [9] is described as follows: (§1) Cytotoxicity against human HEK293T cells assessed as reduction in cell viability after 72 hrs by alamar blue assay. The format is cell-based, HEK-293T. The note with it: HEK293T cells.
The subject of data set [10] is MCF7. Kind of data set: Effect on mammosphere-forming capacity in ER-positive human MCF7 cells measured after 48 hrs by microscopy. The format is functional, cell-based.
The nature of data set [11]: Therapeutic index, ratio of CC50 for cytotoxicity against human HEK293T cells to ratio of IC50 for Down modulation of sortilin expression in HEK293T cells tranfected with GFP-tagged sortilin incubated for 24 hrs by flow cytometric analysis. The format is toxicity, cell-based. The note with it: read-out: TI.
Data set [12] relates to MDA-MB-231. As to the kind of experiment: Cytotoxicity against human MDA-MB-231 cells assessed as reduction in cell viability after 48 hrs by alamar blue assay. The format is functional, cell-based.
Data set [13] concerns HEK-293T. The description is as §1. It counts as cell-based. The note with it: hek-293t, 72 h.
In data set [14] the test system is MDA-MB-231. Kind of data set: Inhibition of mammosphere-forming capacity in ER-negative human MDA-MB-231 cells assessed as inhibition of progranulin-induced mammosphere formation at 4 uM measured after 48 hrs by microscopy. The format is functional, cell-based.
Data set [15] relates to MCF7. As to the kind of experiment: Inhibition of mammosphere-forming capacity in ER-positive human MCF7 cells assessed as inhibition of progranulin-induced mammosphere formation at 4 uM measured after 48 hrs by microscopy. It counts as functional, cell-based.

The source made the active and inactive calls. No cut-off for these calls is given here.

The results in this text go back to ChEMBL document CHEMBL5029159, “Reduction of Progranulin-Induced Breast Cancer Stem Cell Propagation by Sortilin-Targeting Cyclotriazadisulfonamide (CADA) Compounds” (J Med Chem, 2021).

In general, IC50 refers to the point on the concentration scale where inhibition reaches its midpoint. High values mean a need for much substance, low ones inhibition by little substance. What is called CC50 is the concentration that lowers cell viability or growth by half. Take `C=C1CN(S(=O)(=O)c2ccc(C)cc2)CCCN(CCc2ccccc2)CCCN(S(=O)(=O)c2ccc(C)cc2)C1.Cl`: the Kinetic_solubility in data set [1] was found to be 55 µM. Further, the Activity result with MCF7 [2] was “Dose-Dependent Effect”; in the data set with MDA-MB-231 [3], “Active”. The inhibition entry with MDA-MB-231 [4] and in the data set on MCF7 [6] was “Active” throughout. The result in the data set with MDA-MB-231 [5], in the data set on MCF7 [7], in the data set with MCF7 [10] and with MDA-MB-231 [12] was inactive. Moreover, the half-maximal inhibitory concentration (IC50) in the data set with HEK-293T [8] turned out to be 1 µM. In data set [9], the 50% cytotoxic concentration (CC50) at 72 h was found to be 50 µM. The selectivity ratio at 24 h in data set [11] was above 50.

In the case of `C=C1CN(S(=O)(=O)c2ccc(N(C)C)cc2)CCCN(CC2CCCCC2)CCCN(S(=O)(=O)c2cccc3ccccc23)C1.Cl`, the Kinetic_solubility in [1] amounted to 60 µM. For the same molecule, the Activity result in the data set on MCF7 [2] was “Dose-Dependent Effect”; with MDA-MB-231 [3], “Active”. Also, the inhibition result with MDA-MB-231 [4] and with MCF7 [6] was “Active” each time. Moreover, the result with MDA-MB-231 [5], in the data set on MCF7 [7], in the data set on MCF7 [10] and with MDA-MB-231 [12] was inactive. Further, inhibition with HEK-293T [8] was half-maximal at 1.9 µM (IC50). Further, in [9], the CC50 at 72 h is above 50 µM. Also, the selectivity ratio at 24 h in data set [11] is above 26.

In the case of `C=C1CN(S(=O)(=O)c2ccc(OC)cc2)CCCN(CC2CCCCC2)CCCN(S(=O)(=O)c2ccc(N(C)C)cc2)C1.Cl`, the Kinetic_solubility in data set [1] stood at 56 µM. Further, the Activity result is recorded as “Dose-Dependent Effect” in the data set with MCF7 [2] and “Active” in the data set on MDA-MB-231 [3]. Moreover, the inhibition entry in the data set on MDA-MB-231 [4] and in the data set with MCF7 [6] was “Active” each time. For the same molecule, the result in the data set on MDA-MB-231 [5], in the data set on MCF7 [7], in the data set on MCF7 [10] and in the data set with MDA-MB-231 [12] was inactive. In addition, in the data set on HEK-293T [8], the concentration for half-maximal inhibition (IC50) was 0.1 µM. Also, in the data set on HEK-293T [13], the CC50 came out at 1 µM. Moreover, the selectivity ratio at 24 h in data set [11] stood at 10.

Turning to `C=C1CN(S(=O)(=O)c2ccc(C)cc2)CCCN(CC2CCCCC2)CCCN(S(=O)(=O)c2ccc(OC)cc2)C1.Cl`, in [1], the Kinetic_solubility was 57 µM. Further, the result in the data set on MDA-MB-231 [5] and with MCF7 [10] was inactive. In the data set on HEK-293T [8], this molecule returned an IC50 of 0.5 µM. Besides, the CC50 in the data set with HEK-293T [13] worked out at 1.4 µM. For the same molecule, the selectivity ratio at 24 h in [11] was found to be 2.8.

In the case of `C=C1CN(S(=O)(=O)c2ccc(C)cc2)CCc2cc(-c3ccccc3)cc(n2)CCN(S(=O)(=O)c2ccc(C)cc2)C1.Cl`, the solubility kinetic at 0.5 h in data set [1] stood at 61 µM. Further, the inhibition result in the data set with MDA-MB-231 [4], with MDA-MB-231 [14] and with MCF7 [15] was “Active” throughout. Moreover, the outcome in the data set with MDA-MB-231 [5] and in the data set on MCF7 [10] was inactive. In the data set with HEK-293T [8], this molecule displayed a concentration for half-maximal inhibition (IC50) of 4 µM. Further, the half-maximal cytotoxic concentration (CC50) with HEK-293T [13] is above 50 µM. For the same molecule, in data set [11], the selectivity ratio at 24 h is above 12.5.

`C=C1CN(S(=O)(=O)c2ccc(C)cc2)CCCN(Cc2ccccc2)CCCN(S(=O)(=O)c2ccc(C)cc2)C1.Cl` [CYCLOTRIAZADISULFONAMIDE HYDROCHLORIDE]: the solubility kinetic at 0.5 h in [1] amounted to 43 µM. For the same molecule, the outcome in the data set with MDA-MB-231 [5] and in the data set on MCF7 [10] was inactive. This molecule yielded an IC50 with HEK-293T [8] of 2.2 µM. For the same molecule, the CC50 in the data set with HEK-293T [13] was above 50 µM. Also, in data set [11], the selectivity ratio at 24 h is above 23.

For `C=C1CN(S(=O)(=O)c2ccc(C)cc2)CCCN(CC2CCCCC2)CCCN(S(=O)(=O)c2ccc(OCCO)cc2)C1.Cl`, the Kinetic_solubility in [1] was found to be 59 µM. For the same molecule, the inhibition entry in the data set with MDA-MB-231 [4], in the data set with MDA-MB-231 [14] and with MCF7 [15] was “Active” each time. Further, the outcome with MDA-MB-231 [5] and in the data set on MCF7 [10] was inactive. In the data set with HEK-293T [8], this molecule had an IC50 of 9 µM. For the same molecule, the CC50 in the data set with HEK-293T [13] came to 15 µM. Further, the selectivity ratio at 24 h in [11] turned out to be 1.7.
